From patent publication US20250073198A1, “COMPOUNDS AND USE THEREOF FOR THE TREATMENT OF DISEASES ASSOCIATED WITH IMPAIRED ß-GALACTOSIDASE ACTIVITY” (DORPHAN SA, priority 2022, published 2025)

Assays:
cathepsin B = target: T1, cathepsin B (Sus scrofa, UniProt A1E295); test: In-vitro enzymatic activity assay on isolated cathepsin B (pork liver homogenate, Z-FR-AMC substrate); assay type: biochemical; conditions: for IC50: ester prodrug hydrolysed with NaOH to the free acid, 1 hour at 37° C., pH 6.0, read-out: IC50, inhibition of cathepsin B (catB) activity in pork liver homogenate; for inhibitory activity against isolated catB, compared to E64c: pork liver homogenate, result in words
T1 construct: from tissue; host or cells: pork liver homogenate
Method: The ability of the compounds VRO006_hydrol, VRO047_hydrol, VRO052_hydrol, VRO059_hydrol, VRO073_hydrol, VRO109_hydrol, VRO244_hydrol, VRO001_hydrol, VRO082_hydrol, VRO035_hydrol, VRO119_hydrol, and VRO243_hydrol to inhibit isolated cathepsin B was assessed in an enzymatic assay and compared to the inhibitory activity of the prior art E64c. In this assay, the compounds VRO006, VRO042, VRO047, VRO052, VRO059, VRO073, VRO109, VRO244, VRO001, VRO082, VRO035, VRO119, and VRO243 were used and the assay was performed in the presence of NaOH, in order to simulate the ester cleavage that occurs within the gastrointestinal tract, and to release the free acid (VROxxx_hydrol compound) from the prodrug (corresponding VROxxx compound). The chemical structures of compounds […], VRO042, VRO047, VRO052, VRO059, VRO073, […] and VRO244 and their chemical names are provided in [Table 2] above. The structures of VRO001, VRO082, VRO035, VRO119 and VRO243 are provided in [Table 3] below. The cathepsin B was from pork liver homogenate.
The enzymatic assay was performed as follows. Samples of homogenized pork liver (75 mg of fresh tissue per sample) were incubated for 1 hour at 37° C. with Z—FR-AMC (benzyloxycarbonyl-L-[…]-4-methylcoumaryl-7-amide) at […] in 1 M sodium acetate pH 6.0, supplemented with 2.5 mM EDTA, 2.5 mM DTT and 0.1% Triton X-100, and graded concentrations of test substances (between 0.1 nM and […]). The stock solutions of test substances were at 20 mM in DMSO. Fluorescence was determined at 445 nm using 365 nm as the excitation wavelength.

[1] = prior art statement; cited from earlier work
[2] = including pediatric patients; cited from earlier work

SMILES | IC50 (cathepsin B) [nM] | inhibitory activity against isolated catB, compared to E64c (cathepsin B) | penetration of the blood-brain barrier [1] | toxicity for human in 3-year clinical trials [2]
CC(C)CCNC(=O)C(CC(C)C)N(C)C(=O)C1OC1C(=O)O (stereo not shown) [VRO001_hydrol] | > 100 | unable to inhibit catB |  | 
CC(C)CC(NC(=O)C1OC1C(=O)O)C(=O)NCCC(F)(F)F (stereo not shown) [VRO035_hydrol] | > 100 | inhibitory activity was lost |  | 
COCCCNC(=O)[C@H](CC(C)C)NC(=O)[C@H]1O[C@@H]1C(=O)O [VRO042_hydrol, (2S,3S)-3-(((S)-1-((3-3-methoxypropyl)amino)-4-methyl-1-oxopentan-2-yl)carbamoyl)oxirane-2-carboxylic acid] | ≤ 100 | maintaining efficient inhibition of catB |  | 
CC(C)C[C@H](NC(=O)[C@H]1O[C@@H]1C(=O)O)C(=O)NCc1ccccc1F [VRO073_hydrol, (2S,3S)-3-(((S)-1-((2-fluorobenzyl)amino)-4-methyl-1-oxopentan-2-yl)carbamoyl)oxirane-2-carboxylic acid] | ≤ 100 | only slightly reduced |  | 
CCOC(=O)[C@H]1O[C@@H]1C(=O)N[C@@H](CC(C)C)C(=O)N(C)CCC(C)C [VRO006, Ethyl (2S,3S)-3-(((S)-1-(isopentyl(methyl)amino)-4-methyl-1-oxopentan-2-yl)carbamoyl)oxirane-2-carboxylate] |  | quite similar to the one of E64c |  | 
CC(C)CCN(C)C(=O)[C@H](CC(C)C)NC(=O)[C@H]1O[C@@H]1C(=O)O [VRO006_hydrol, (2S,3S)-3-(((S)-1-(isopentyl(methyl)amino)-4-methyl-1-oxopentan-2-yl)carbamoyl)oxirane-2-carboxylic acid] | ≤ 100 |  |  | 
COCC(NC(=O)C1OC1C(=O)O)C(=O)NCCC(C)C (stereo not shown) [VRO082_hydrol] | > 100 | did not allow to maintain the inhibitory activity |  | 
O=C(NCc1ccccc1F)[C@H](CC(F)(F)F)NC(=O)[C@H]1O[C@@H]1C(=O)O [VRO244_hydrol, (2S,3S)-3-(((S)-4,4,4-trifluoro-1-((2-fluorobenzyl)amino)-1-oxobutan-2-yl)carbamoyl)oxirane-2-carboxylic acid] | ≤ 100 | only slightly lower than the prior art E64c |  | 
CCOC(=O)[C@H]1O[C@@H]1C(=O)N[C@@H](CC(C)C)C(=O)NCCC(C)C [Compound E64d] |  |  | low penetration of the blood-brain barrier | non-toxicity for human
COCCNC(=O)[C@H](CC(C)C)NC(=O)[C@H]1O[C@@H]1C(=O)O [VRO047_hydrol, (2S,3S)-3-(((S)-1-((2-2-methoxyethyl)amino)-4-methyl-1-oxopentan-2-yl)carbamoyl)oxirane-2-carboxylic acid] | ≤ 100 | almost the same activity as E64c |  | 
CC(C)CCNC(=O)[C@H](CC(F)(F)F)NC(=O)[C@H]1O[C@@H]1C(=O)O [VRO109_hydrol, (2S,3S)-3-(((S)-4,4,4-trifluoro-1-(isopentylamino)-1-oxobutan-2-yl)carbamoyl)oxirane-2-carboxylic acid] | ≤ 100 | increased compared to E64c |  | 
CC(C)C[C@H](NC(=O)[C@H]1O[C@@H]1C(=O)O)C(=O)NCCc1ccccn1 [VRO052_hydrol, (2S,3S)-3-(((S)-4-methyl-1-oxo-1-((2-(pyridin-2-yl)ethyl)amino)pentan-2-yl)carbamoyl)oxirane-2-carboxylic acid] | ≤ 100 | only slightly reduced |  | 
CC(C)CCNC(=O)C(Cc1ccccn1)NC(=O)C1OC1C(=O)O (stereo not shown) [VRO119_hydrol] | > 100 | not tolerated |  | 
CC(C)C[C@H](NC(=O)[C@H]1O[C@@H]1C(=O)O)C(=O)NCCCN1CCCCC1 [VRO059_hydrol, (2S,3S)-3-(((S)-4-methyl-1-oxo-1-((3-(piperidin-1-yl)propyl)amino)pentan-2-yl)carbamoyl)oxirane-2-carboxylic acid] | ≤ 100 | almost similar to E64c |  | 
CC(C)CCN(C)C(=O)C(CC(F)(F)F)NC(=O)C1OC1C(=O)O (stereo not shown) [VRO243_hydrol] | > 100 | drastic loss of activity |  | 
